For series [1] the following is noted: anti-inflammatory steroids at typical concentration in topical products (triamcinolone acetonide 0.025%-0.1% medium, 0.5% high); cited from earlier work.
The nature of series [2]: Shakability of the composition. The series is classed as physicochemical. From the text:
‘Shakability’ means that the composition contains some or sufficient flow to allow the composition to be mixed or remixed on shaking. That is, it has fluid or semi fluid properties. A breakable foam is that is thermally stable, yet breaks under sheer force.
‘Shakability’ means that the composition contains some or sufficient flow to allow the composition to be mixed or remixed on shaking. That is, it has fluid or semi fluid properties. In some very limited cases it may still be possible to have a foamable composition which is flowable but not apparently shakable.

Series [3] can be described thus: Foam appearance (color, odor, form). In kind it is physicochemical. Also on record: key to ODOR: No odor (N.O.); key to COLOR: white (W).
Series [4] is described as follows: Predicted physical characteristics of the resultant foam after adding an active agent. The conditions noted are these: predicted on adding the active (BMV […] w/w; estradiol hemihydrate about 0.0051% w/w) with modulating agent to the carrier of the example at the place. The series is classed as physicochemical.
A short description of series [5]: Chemical stability: amount of active agent in foam by HPLC on storage. In kind it is physicochemical. Here is the method: The amount of active agent present is analyzed in foam expelled from various pressurized canisters containing foam formulations using HPLC. Analysis is carried out at zero time and at appropriate time intervals thereafter. The canisters are stored in controlled temperature incubators at 5° C., at 25° C., at, 40° C. and at 50° C. At appropriate time intervals canisters are removed and the amount of active agent in the foam sample is measured. […] All samples were stored at 50° C. for 4 weeks, in order to assess their stability. The following table provides the results of this short-term stability study, which indicated high compatibility between the polyol composition and the steroid drugs, which are known to be temperature-sensitive.

Setting [6] is: active agent in stock of PEG-400 97.5, hydroxypropyl cellulose 0.5, steareth 2 2.0 (first Example 29).
Setting [7] is: active agent in stock of propylene glycol 46, glycerin 33, dimethyl isosorbide 15, stearyl alcohol, hydroxypropyl cellulose, laureth-4, GMS/PEG 100 stearate (Example 30).
Setting [8] is: active agent in stock of propylene glycol 91, stearyl alcohol 2, Klucel EF 2, laureth-4 2, glyceryl monostearate/PEG 100 stearate 3 (second Example 29).

The values below come from US8486374B2, “Hydrophilic, non-aqueous pharmaceutical carriers and compositions and uses” (Foamix Ltd., priority 2004, dated 2013).

Where a name gives a salt, the structure may show the parent alone.

For the molecule `CCC(=O)OCC(=O)[C@@]1(OC(=O)CC)[C@H](C)C[C@H]2[C@H]3[C@H]([C@@H](O)C[C@@]21C)[C@@]1(C)C=CC(=O)C=C1C[C@H]3Cl` [Alcometasone dipropionate], in series [1], the “Relative Potency” value was “Medium Potency”.
`O=C(O)CCCCCCCC(=O)O` [Azelaic acid]: the SHAKABILITY result in series [2] (setting [6]), in series [2] (setting [7]) and in series [2] (setting [8]) was “Yes” each time. The COLOR entry in series [3] (setting [6]), in series [3] (setting [7]) and in series [3] (setting [8]) was “W” throughout. The ODOR result in series [3] (setting [6]), in series [3] (setting [7]) and in series [3] (setting [8]) was “N.O” throughout.
In the case of `O=C(OOC(=O)c1ccccc1)c1ccccc1` [Benzoyl peroxide], the SHAKABILITY entry in series [2] (setting [6]), in series [2] (setting [7]) and in series [2] (setting [8]) was “Yes” in each case. The COLOR entry in series [3] (setting [6]), in series [3] (setting [7]) and in series [3] (setting [8]) was “W” in each case. The ODOR entry in series [3] (setting [6]), in series [3] (setting [7]) and in series [3] (setting [8]) was “N.O” throughout.
Take `CCCCC(=O)O[C@]1(C(=O)CO)[C@@H](C)C[C@H]2[C@@H]3CCC4=CC(=O)C=C[C@]4(C)[C@@]3(F)[C@@H](O)C[C@@]21C` [Betamethasone 17 valerate micronized, Betamethasone 17 valerate]: the “effect on the physical characteristics of the resultant foam” value in series [4] is listed as “minimal effect”. Moreover, the “Relative Potency” value in series [1] is listed as “Medium Potency”. The SHAKABILITY entry in series [2] (setting [6]), in series [2] (setting [7]) and in series [2] (setting [8]) was “Yes” throughout. In addition, the COLOR result in series [3] (setting [6]), in series [3] (setting [7]) and in series [3] (setting [8]) was “W” in each case. Moreover, the ODOR result in series [3] (setting [6]), in series [3] (setting [7]) and in series [3] (setting [8]) was “N.O” throughout.
For `C[C@H]1C[C@H]2[C@@H]3CCC4=CC(=O)C=C[C@]4(C)[C@@]3(F)[C@@H](O)C[C@]2(C)[C@@]1(OC(=O)c1ccccc1)C(=O)CO` [Betamethasone-17-benzoate], the “Relative Potency” value in series [1] is recorded as “High Potency”.
As for `CCC(=O)OCC(=O)[C@@]1(OC(=O)CC)[C@@H](C)C[C@H]2[C@@H]3CCC4=CC(=O)C=C[C@]4(C)[C@@]3(F)[C@@H](O)C[C@@]21C` [Bethamethasone Dipropionate], the “% Degradation after 4 weeks at 50° C.” value in series [5] (4 weeks) is given as 0%. Moreover, in series [1], the “Relative Potency” value is “High Potency”.
With `Cn1c(=O)c2c(ncn2C)n(C)c1=O` [Caffeine], the SHAKABILITY entry in series [2] (setting [6]), in series [2] (setting [7]) and in series [2] (setting [8]) was “Yes” throughout. Also, the COLOR entry in series [3] (setting [6]), in series [3] (setting [7]) and in series [3] (setting [8]) was “W” in each case. The ODOR result in series [3] (setting [6]), in series [3] (setting [7]) and in series [3] (setting [8]) was “N.O” in each case.
As to `C=C1/C(=C\C=C2/CCC[C@]3(C)[C@@H]([C@H](C)/C=C/[C@@H](O)C4CC4)CC[C@@H]23)C[C@@H](O)C[C@@H]1O` [Calcipotriol hydrate], the SHAKABILITY result in series [2] (setting [6]), in series [2] (setting [7]) and in series [2] (setting [8]) was “Yes” throughout. In addition, the COLOR result in series [3] (setting [6]), in series [3] (setting [7]) and in series [3] (setting [8]) was “W” in each case. Moreover, the ODOR entry in series [3] (setting [6]), in series [3] (setting [7]) and in series [3] (setting [8]) was “N.O” throughout.
For `Cc1cc(C2CCCCC2)n(O)c(=O)c1` [Ciclopiroxolamine], the SHAKABILITY result in series [2] (setting [6]), in series [2] (setting [7]) and in series [2] (setting [8]) was “Yes” each time. For the same molecule, the COLOR result in series [3] (setting [6]), in series [3] (setting [7]) and in series [3] (setting [8]) was “W” throughout. Moreover, the ODOR result in series [3] (setting [6]), in series [3] (setting [7]) and in series [3] (setting [8]) was “N.O” throughout.
Consider `CCC(=O)O[C@]1(C(=O)CCl)[C@@H](C)C[C@H]2[C@@H]3CCC4=CC(=O)C=C[C@]4(C)[C@@]3(F)[C@@H](O)C[C@@]21C` [Clobetasol Propionate], for which the “Relative Potency” value in series [1] is “Highest Potency”.
As to `CCCC(=O)O[C@]1(C(=O)CCl)[C@H](C)C[C@@H]2[C@@H]3CCC4=CC(=O)C=C[C@]4(C)[C@]3(F)C(=O)C[C@@]21C` [Clobetasone-17-butyrate], the “Relative Potency” value in series [1] was “Medium Potency”.
For the molecule `CC1(C)O[C@@H]2C[C@H]3[C@@H]4CCC5=CC(=O)C=C[C@]5(C)[C@H]4[C@@H](O)C[C@]3(C)[C@]2(C(=O)CO)O1` [Desonide], in series [1], the “Relative Potency” value is “Low Potency”.
With `C[C@]12CC[C@@H]3c4ccc(O)cc4CC[C@H]3[C@@H]1CC[C@@H]2O` [Estradiol hemihydrate], the “effect on the physical characteristics of the resultant foam” value in series [4] is on record as “minimal effect”.
Take `CC(=O)OCC(=O)[C@@]12OC(C)(C)O[C@@H]1C[C@H]1[C@@H]3C[C@H](F)C4=CC(=O)C=C[C@]4(C)[C@@]3(F)[C@@H](O)C[C@@]12C` [Flucinonide]: the “Relative Potency” value in series [1] is “Medium Potency”.
In the case of `CC1(C)O[C@@H]2C[C@H]3[C@@H]4C[C@H](F)C5=CC(=O)C=C[C@]5(C)[C@@]4(F)[C@@H](O)C[C@]3(C)[C@]2(C(=O)CO)O1` [Fluocinolone Acetonide], in series [1], the “Relative Potency” value is “Medium Potency”.
Regarding `CC1(C)O[C@@H]2C[C@H]3[C@@H]4CCC5=CC(=O)CC[C@]5(C)[C@@]4(F)[C@@H](O)C[C@]3(C)[C@]2(C(=O)CCl)O1` [Halcinonide], the “Relative Potency” value in series [1] is on record as “High Potency”.
`CC(=O)OCC(=O)[C@@]1(O)CC[C@H]2[C@@H]3CCC4=CC(=O)CC[C@]4(C)[C@H]3[C@@H](O)C[C@@]21C` [Hydrocortison Acetate]: the “Relative Potency” value in series [1] was “Low Potency”.
Consider `CCCC(=O)O[C@]1(C(=O)CO)CC[C@H]2[C@@H]3CCC4=CC(=O)CC[C@]4(C)[C@H]3[C@@H](O)C[C@@]21C` [Hydrocortison Butyrate], for which the “% Degradation after 4 weeks at 50° C.” value in series [5] (steroid in TECH-PG 032, stored at 50° C. for 4 weeks) was 2.6%; in series [5] (steroid in TECH-PG 033, stored at 50° C. for 4 weeks) it was 2.8%.
As to `C[C@]12CCC(=O)C=C1CC[C@@H]1[C@@H]2[C@@H](O)C[C@@]2(C)[C@H]1CC[C@]2(O)C(=O)CO` [Hydrocortisone], the “Relative Potency” value in series [1] is “Low Potency”.
As to `CC(=O)N1CCN(c2ccc(OCC3COC(Cn4ccnc4)(c4ccc(Cl)cc4Cl)O3)cc2)CC1` (centres unmarked) [Ketoconazole], the SHAKABILITY result in series [2] (setting [6]) and in series [2] (setting [8]) was “Yes” each time. In addition, the COLOR result in series [3] (setting [6]) and in series [3] (setting [8]) was “W” each time. Moreover, the ODOR result in series [3] (setting [6]) and in series [3] (setting [8]) was “N.O” throughout.
As for `CCC(=O)O[C@]1(C(=O)COC(C)=O)CC[C@H]2[C@@H]3C[C@H](C)C4=CC(=O)C=C[C@]4(C)[C@H]3[C@@H](O)C[C@@]21C` [Methylprednisolone aceponate], the “Relative Potency” value in series [1] was “High Potency”.
On to `C[C@@H]1C[C@H]2[C@@H]3CCC4=CC(=O)C=C[C@]4(C)[C@@]3(Cl)[C@@H](O)C[C@]2(C)[C@@]1(OC(=O)c1ccco1)C(=O)CCl` [Mometasone furoate], for which the “Relative Potency” value in series [1] is recorded as “Medium Potency”.
Take `CC1(C)C(C=C(Cl)Cl)C1C(=O)OCc1cccc(Oc2ccccc2)c1` (stereo not drawn) [Permethrin BPC (cis:trans 25:75), Permethrin]: the SHAKABILITY entry in series [2] (setting [6]) and in series [2] (setting [8]) was “Yes” throughout. Also, the COLOR entry in series [3] (setting [6]) was “W”; in series [3] (setting [8]), “O.W”. The values for the ODOR entry in series [3] (setting [6]) and in series [3] (setting [8]) were “N.O” and “No”, respectively.
Turning to `CN1C(C(=O)Nc2ccccn2)=C(O)c2ccccc2S1(=O)=O` [Piroxicam], the SHAKABILITY result in series [2] (setting [6]) and in series [2] (setting [8]) was “Yes” each time. Moreover, the COLOR entry in series [3] (setting [6]) is “Light”; in series [3] (setting [8]) it was “O.W”. In addition, the ODOR result in series [3] (setting [6]) is reported as “N.O”; in series [3] (setting [8]), “No”.
As for `CCOC(=O)O[C@]1(C(=O)COC(=O)CC)CC[C@H]2[C@@H]3CCC4=CC(=O)C=C[C@]4(C)[C@H]3[C@@H](O)C[C@@]21C` [Prednicarbate], the “Relative Potency” value in series [1] is recorded as “Medium Potency”.
With `O=C(O)c1ccccc1O` [Salicylic acid], the SHAKABILITY result in series [2] (setting [6]) and in series [2] (setting [8]) was “Yes” throughout. Moreover, the COLOR entry is on record as “W” in series [3] (setting [6]) and “O.W” in series [3] (setting [8]). Further, the values for the ODOR result in series [3] (setting [6]) and in series [3] (setting [8]) were “N.O” and “No”, respectively.
Take `CN(C/C=C/C#CC(C)(C)C)Cc1cccc2ccccc12` [Terbinafine HCl]: the SHAKABILITY result in series [2] (setting [6]) and in series [2] (setting [8]) was “Yes” in each case. The COLOR result in series [3] (setting [6]) and in series [3] (setting [8]) was “W” in each case. The ODOR entry in series [3] (setting [6]) is “N.O”; in series [3] (setting [8]), “No”.
